Here are results for one molecule from patent US20230148144A1, “Cell” (AUTOLUS LIMITED, priority 2020, published 2023).

The test concerns CAR-T cells. Description: Effect of Tacrolimus on proliferation of CAR-expressing cells in co-culture. It is filed as cell-based. To be noted: 20 ng/ml Tacrolimus. How it is done: Cells were co-cultures for 96 hours at a 1:4 E:T ratio in the presence or absence of 20 ng/ml of Tacrolimus. Transduced effector cells were identified based on their expression of RQR8 and their proliferation analysed using cell-trace violet (CTV) dilution. […] In a similar study, cells transduced to express either TRBC2 CAR alone or TRBC2 CAR in combination with a calcineurin mutant (CnB30) were co-cultured for 4 days with TRBC2+ positive targets in the presence or absence of 20 ng/ml of Tacrolimus. […] This was true for cells expressing TRBC2 CAR alone or co-expressing TRBC2 CAR in combination with the calcineurin mutant.

On to `C=CC[C@@H]1/C=C(\C)C[C@H](C)C[C@H](OC)[C@H]2O[C@@](O)(C(=O)C(=O)N3CCCC[C@H]3C(=O)O[C@H](/C(C)=C/[C@@H]3CC[C@@H](O)[C@H](OC)C3)[C@H](C)[C@@H](O)CC1=O)[C@H](C)C[C@@H]2OC` [Tacrolimus], for which, under “4 days co-culture with TRBC2+ targets, FIG. 22”, the “proliferation of cells expressing TRBC2 CAR alone” value is on record as “inhibits proliferation”. Under “96 h co-culture, FIG. 16B vs FIG. 17B”, the “proliferation of CAR-T cells” value is reported as “inhibited”.
